Source: US20220133702A1, “CYSTIC FIBROSIS TRANSMEMBRANE CONDUCTANCE REGULATOR MODULATORS FOR TREATING AUTOSOMAL DOMINANT POLYCYSTIC KIDNEY DISEASE” (The Johns Hopkins University, priority 2020, published 2022)

Legend:
PC2 in Pkd1^RC/RC mice = assay: Immunoblot of PC2 protein in kidney tissue, missense model; assay type: in vivo, mouse; conditions: treated daily from one month to 6 months
Description: The levels of PC2 protein were analyzed in two mouse models of ADPKD: Pkd1^fl/fl; Pax8^rtTA; TetO-cre, which is PC1 null, and the Pkd1^R3277C/R3277C (pkd1^RC/RC) which has a missense mutation in PC1. Pkd1^RC/RC mice develop a consistent, slowly progressing polycystic kidney disease. Pkd1^RC/RC mice were treated daily with VX-809, beginning at one month, and euthanized at 6 months.
Wild-type mice were treated without doxycycline (Wt), and Pkd1^RC/RC mice were treated with doxycycline plus DMSO (RC) or with doxycycline plus VX809 (RC+VX809), as indicated. Three mice were analyzed for each treatment.
In Pkd1^RC/RC mice, doxycycline-induced cyst formation decreases PC2 protein.

cAMP = cAMP level in mouse kidney tissue; assay type: in vivo; conditions: PC1 conditional knockout mouse kidneys, VX-809-treated vs untreated
Description: FIG. 4A, FIG. 4B, FIG. 4C, FIG. 4D, and FIG. 4E show (FIG. 4A-FIG. 4B) cAMP levels are reduced by VX-809. (FIG. 4A) cAMP levels in mouse tissue were reduced by VX-809. The kidney samples (n=6) analyzed were taken from those depicted in FIG. 1. (FIG. 4B) Confluent PN and PH cells were treated with VX-809 (10 μM) or DMSO for 16 hand then treated with forskolin (100 μM) for 30 min before the cells were harvested for the assay. Columns represent means±SEM. Statistical analysis was performed using a two-tailed Student's t-test. Each set of data is from three individual wells; Note that resting cAMP is greater in PN vs PH cells as previously shown (25). Also note that forskolin caused a large increase in cAMP. A smaller increase occurred with IBMX. […] The data were analyzed by non-parametric t-test. […]
It has been shown previously in both animal and cell culture models of ADPKD that cells lacking functional PC1 have elevated cAMP levels when compared to normal. To assess the effect of CFTR correctors, cAMP activity was measured in PC1 conditional knockout mouse kidneys and in PN cells that were either left untreated or treated with VX-809. […]
Cyclic AMP assay. […] Cyclic AMP levels were measured with a direct cAMP Enzyme Immunoassay Kit (Sigma, #CA200) according to the manufacturer's protocol. The results are expressed as pmole/ml. […]

HSP27, 70, 90 and HSP40 = assay: Western blot of heat shock proteins in kidney tissue lysates; assay type: in vivo; conditions: 30 mg/kg BW, cyst-induced mouse kidneys
Description: FIG. 7A, FIG. 7B, FIG. 7C, FIG. 7D, FIG. 7E, and FIG. 7F show chaperone expression is altered in mice by VX-809. (FIG. 7A-FIG.7B) Representative Western blot images of HSP27, 70, 90 and HSP40 in lysates of kidney tissue from no cyst induced (ND), cyst induced with Doxycycline (D) or cyst induced pkd−/− mice treated with VX-809 (D+VX-809) 30 mg/kg BW. (FIG. 7C, FIG. 7D, FIG. 7E, and FIG. 7F). Columns represent averages±standard errors of HSP27, 70, 90 and HSP40 expression. Data were analyzed by non-parametric t-test. n=4 for each treated and control groups. Black lines between lanes represent representative experiments from the same gel. *P<0.05; **P<0.01;
To facilitate their growth in the kidney, cysts have developed an altered network of proteins that most likely serves to protect them from stress . Next, it was determined whether VX-809 would alter the levels of Hsps in pkd−/− mice and in PN cells. […] Hsp 27, 70 and 90 are all elevated in cystic kidneys compared to normal controls. […] There is no change in Hsp40. […] Both sets of data are consistent with an alteration in the heat shock response to cyst growth.

[1] = test system: Hsp27, Hsp70, and Hsp90 in PN cells; assay: Disappearance of Hsps after translation block with cycloheximide; assay type: cell-based, mouse; conditions: VX-809 10 μM with cycloheximide 25 μM
Description: FIG. 9A, FIG. 9B, FIG. 9C, FIG. 9D, FIG. 9E, FIG. 9F, FIG. 9G, and FIG. 9H show Hsp27, HSp70, and Hsp90 expression in PN cells treated with VX-809 and/or cycloheximide. (A) Pkd1 null (PN) cells were treated with VX-809 (10 μM) and/or with cycloheximide (25 μM) for indicated time points before being harvested for the assay. (FIG. 9A) Western blot showing expression of Hsp27, Hsp70, and Hsp90 in VX-809-(16 h), cycloheximide-treated, or control PN cells. ((FIG. 9B. (FIG. 9C, and (FIG. 9D) Columns represent averages±standard errors of Hsp27, Hsp70, and Hsp90 expression in cells treated with VX-809 and/or cycloheximide. ((FIG. 9E) Western blot showing expression of Hsp27, Hsp70, and Hsp90 in PN cells treated with VX-809+cycloheximide or control PN cells. ((FIG. 9F, FIG. 9G, and FIG. 9H) Columns represent averages±standard errors of Hsp27, Hsp70, and Hsp90 expression in cells treated only with cycloheximide or in control PN cells. Data were analyzed by non-parametric t-test. The experiments were repeated 3-5 times. *P<0.05, **P<0.01;
To gain more insight into the mechanism whereby VX-809 alters Hsp protein levels, translation was inhibited by using cycloheximide and the disappearance of the three Hsps was monitored. […] Hsp90 was reduced by approximately 25%, and Hsp27 was unchanged.

Cc1ccc(NC(=O)C2(c3ccc4c(c3)OC(F)(F)O4)CC2)nc1-c1cccc(C(=O)O)c1 [VX-809, lumacaftor]
PC2 protein expression (normalized to vinculin) (PC2 in Pkd1^RC/RC mice): higher levels of PC2 expression
cAMP levels in kidneys (cAMP): significantly decreased
Hsp27 expression (HSP27, 70, 90 and HSP40): significantly less expression
Hsp40 expression (HSP27, 70, 90 and HSP40): no change
Hsp70 expression (HSP27, 70, 90 and HSP40): significantly less expression
Hsp90 expression (HSP27, 70, 90 and HSP40): significantly less expression
Hsp27 level over the 8-h period [1]: unchanged
Hsp90 reduction over the 8-h period [1]: approximately 25%
Hsp70 levels over the 8-h period ([1]; vs time 0): approximately half the level observed at time 0
